Measurements reported in article PMC6936879, “Inhibiting the copper efflux system in microbes as a novel approach for developing antibiotics” (PLoS ONE, 2019).

Columns and labels:
E. coli (BL21) = experiment: Kirby-Bauer test (disc diffusion); format: cell-based; settings: 2 mm radius discs, LB petri dishes, 37 °C overnight
[1] = format: physicochemical; settings: chemical stability; peptides diluted to 150 mM solution in double-distilled water, incubated at 37 °C for 24 h; ESI-MS spectra before and after incubation
Description: We hypothesized that peptides would penetrate into E. coli and bind to CusB, interfere with its physiological dimerization, and thereby induce non-physiological structural changes or inhibit physiological structural changes in the transporter in response to extended levels of Cu(I). Thus, E. coli will lose its ability to be protected by copper-mediated oxidative stress, resulting in the death of the bacteria. Unlike CusB, CueO has homologs in human cells (Superoxide dismutase, SOD), and the main role in this study is to affect the CusCFBA efflux system regardless to CueO function, all measurements were carried out with an active CueO. First, we verified whether all ten peptides were stable under physiological conditions via incubation at 37°C for 24 h by ESI-MS analysis (Figs B to D in S1 File). Peptides 2–10 were stable under these given conditions, whereas peptide 1 was unstable.
Validation of the peptides stability using ESI-MS
In order to confirm the stability of the peptides, them were diluted to 150 mM solution in double-distilled
water, then incubated at 37 °C for 24 hr.
S2 before the incubation (Figure S2A) and after the incubation (Figure S2B). All peptides besides pep1
Fig B: ESI-MS. ESI-MS spectra for pep1 and pep2, left panel presents the spectra after peptide
(1 picture or pasted object on this page, not shown here)

E. coli (BL21;DE3) [2] = experiment: E. coli viability assay (LIVE/DEAD fluorescence imaging); format: cell-based; settings: peptide 125 μM; LIVE/DEAD staining, M9 medium, confocal imaging, cell counts with ImageJ; mean ± SE, n = 3
Description: E. coli (BL21;DE3) were dyed using the L7007 LIVE/DEAD Bacterial Viability kit (Molecular Probes, Eugene OR, USA); microbes were grown in M9 medium. Images were acquired on a Leica SP8 confocal microscope, running LASX acquisition software. The magnification consisted of a 63 X 1.4 NA objective. Microbes were counted using ImageJ software. Error calculations were based on three repetitions, with each experiment scanned at nine different tiles—all together, 27 repetitions.
Live/dead fluorescence cell imaging experiments were used to indicate bacterial viability when incubated with the peptides. This method also helped to determine whether the decrease in the growth rate described above resulted from deceleration in E. coli growth or its substantial death. E coli were grown to the late […] phase (according to the growth rate lines; Figs B to D in S1 File) in the presence of the peptides in poor medium (M9), which mostly resembles physiological conditions.[52–54] Glucose levels in the growth media were sufficient to prevent bacterial viability loss due to lack of nutrition, yet not too high to positively affect its viability. […] However, the effect of the peptides was not as substantial as the commercially available antibiotic kanamycin. […] 5 ± 4.3% and up to 45.3 ± 4.3% reduction at a concentration of 125 μM.
Fig 4 Effect of the test peptides on E. coli viability. […]

E. coli (BL21;DE3) [3] = experiment: E. coli growth rate experiment (O.D. 600 nm) under copper stress; format: cell-based; settings: M9 medium, 37 °C, value after 14 h incubation, 5 μM Cu(II) chloride in assay (sentence does not say with or without Cu(II)), mean ± SE, n = 5
Description: E. coli (BL21;DE3) growth rates were evaluated in 96-well microplates: in 200 μl of a poor medium comprising M9 medium. Incubation was for 16 h at 37°C with Copper(II) chloride (Sigma-Aldrich, St. Louis, MO, USA) at a concentration of 5 μM. Absorbance at 600 nm was measured every 30 min after stirring for 5 s in a 96-well plate reader (SPL Life Sciences, Gyeonggi, Korea). The buffer background was auto-subtracted. Each experiment was repeated five times under identical conditions.
Next, E. coli were grown in M9 medium for 16 h, and their growth rate was evaluated in the absence and presence of Cu(II) in the medium. In each sample, a different peptide was introduced to the medium, with the kanamycin as a positive control. […] Growth rate values for all peptides at various concentrations after 14 h of incubation are presented in Fig 3 (the growth rate curves are presented in Figs E to F in S1 File).
Fig 3 Effect of test peptides on the E. coli growth rate. E. coli cultures were grown as described in Methods. The growth rate values after a 14 h incubation in the medium in the presence (gray lines) and absence (black lines) of Cu(II). Concentrations of the test peptides: A. 50 μM, B. 75 μM, C. 100 μM, and D. 125 μM. *p < 0.05, MEAN ± SE, n = 5, a comparison between the values in the presence and absence of Cu(II). #p < 0.05, MEAN ± SE, n = 5, in the presence of Cu(II) and comparing between values of a buffer and peptide. t-test was used for the statistic evaluation.

[4] = disc solution 50 µM in 0.85% NaCl
[5] = disc solution 75 µM in 0.85% NaCl
[6] = disc solution 100 µM in 0.85% NaCl
[7] = disc solution 125 µM in 0.85% NaCl

For `NC[C@H]1O[C@H](O[C@H]2[C@H](O)[C@@H](O[C@H]3O[C@H](CO)[C@@H](O)[C@H](N)[C@H]3O)[C@H](N)C[C@@H]2N)[C@H](O)[C@@H](O)[C@@H]1O` [Kanamycin, kanamycin, reference compound], the “r, radius of bacteria killing formed over petri dishes by peptide-solution discs” value (E. coli (BL21); [4]) was 2.5 mm, the “r, radius of bacteria killing formed over petri dishes by peptide-solution discs” value (E. coli (BL21); [5]) was 2.5 mm and the “r, radius of bacteria killing formed over petri dishes by peptide-solution discs” value (E. coli (BL21); [6]) was 2.5 mm. For the same compound, the “r, radius of bacteria killing formed over petri dishes by peptide-solution discs” value (E. coli (BL21); [7]) was 2.5 mm.

For AKIQGM [pep3], the “r, radius of bacteria killing formed over petri dishes by peptide-solution discs” value (E. coli (BL21); [4]) was 0 mm, the “r, radius of bacteria killing formed over petri dishes by peptide-solution discs” value (E. coli (BL21); [5]) was 0 mm and the “r, radius of bacteria killing formed over petri dishes by peptide-solution discs” value (E. coli (BL21); [6]) was 0 mm. The “r, radius of bacteria killing formed over petri dishes by peptide-solution discs” value (E. coli (BL21); [7]) was 0 mm.

For “AKIQGMDPVWVTA [pep1, 13-amino acid parent peptide […] mimicking CusB residues 236-248]”, the “stability under physiological conditions (ESI-MS)” value [1] was “unstable”.

For DPVWVTA [pep4], the “r, radius of bacteria killing formed over petri dishes by peptide-solution discs” value (E. coli (BL21); [4]) was 0 mm, the “r, radius of bacteria killing formed over petri dishes by peptide-solution discs” value (E. coli (BL21); [5]) was 0 mm and the “r, radius of bacteria killing formed over petri dishes by peptide-solution discs” value (E. coli (BL21); [6]) was 0 mm. The “r, radius of bacteria killing formed over petri dishes by peptide-solution discs” value (E. coli (BL21); [7]) was 0 mm.

With GMDPVW [pep6] the “r, radius of bacteria killing formed over petri dishes by peptide-solution discs” value (E. coli (BL21); [4]) was 0 mm, the “r, radius of bacteria killing formed over petri dishes by peptide-solution discs” value (E. coli (BL21); [5]) was 0 mm and the “r, radius of bacteria killing formed over petri dishes by peptide-solution discs” value (E. coli (BL21); [6]) was 0 mm. The “r, radius of bacteria killing formed over petri dishes by peptide-solution discs” value (E. coli (BL21); [7]) was 0 mm.

For IQGMD [pep5], the “reduction of bacterial viability” value (E. coli (BL21;DE3) [2]) was 45.3 ± 4.3%, the “decrease in O.D. (600 nm)” value (E. coli (BL21;DE3) [3]; peptide 50 μM) was 54.5 ± 4.2% and the “decrease in O.D. (600 nm)” value (E. coli (BL21;DE3) [3]; peptide 100 μM) was 77.2 ± 6.4%. For the same compound, the “r, radius of bacteria killing formed over petri dishes by peptide-solution discs” value (E. coli (BL21); [4]) was 0 mm, the “r, radius of bacteria killing formed over petri dishes by peptide-solution discs” value (E. coli (BL21); [5]) was 0.5 mm and the “r, radius of bacteria killing formed over petri dishes by peptide-solution discs” value (E. coli (BL21); [6]) was 1 mm. The “r, radius of bacteria killing formed over petri dishes by peptide-solution discs” value (E. coli (BL21); [7]) was 2 mm.

With KIQGMDPVWVT [pep2] the “r, radius of bacteria killing formed over petri dishes by peptide-solution discs” value (E. coli (BL21); [4]) was 0 mm, the “r, radius of bacteria killing formed over petri dishes by peptide-solution discs” value (E. coli (BL21); [5]) was 0 mm and the “r, radius of bacteria killing formed over petri dishes by peptide-solution discs” value (E. coli (BL21); [6]) was 0 mm. For the same compound, the “r, radius of bacteria killing formed over petri dishes by peptide-solution discs” value (E. coli (BL21); [7]) was 0 mm.

For MDPV [pep9], the “r, radius of bacteria killing formed over petri dishes by peptide-solution discs” value (E. coli (BL21); [4]) was 0 mm, the “r, radius of bacteria killing formed over petri dishes by peptide-solution discs” value (E. coli (BL21); [5]) was 0.5 mm and the “r, radius of bacteria killing formed over petri dishes by peptide-solution discs” value (E. coli (BL21); [6]) was 0.5 mm. For the same compound, the “r, radius of bacteria killing formed over petri dishes by peptide-solution discs” value (E. coli (BL21); [7]) was 1.5 mm.

For PVWV [pep10], the “r, radius of bacteria killing formed over petri dishes by peptide-solution discs” value (E. coli (BL21); [4]) was 0 mm, the “r, radius of bacteria killing formed over petri dishes by peptide-solution discs” value (E. coli (BL21); [5]) was 0 mm and the “r, radius of bacteria killing formed over petri dishes by peptide-solution discs” value (E. coli (BL21); [6]) was 0.5 mm. For the same compound, the “r, radius of bacteria killing formed over petri dishes by peptide-solution discs” value (E. coli (BL21); [7]) was 1.5 mm.

In the case of VWVTA [pep7], the “r, radius of bacteria killing formed over petri dishes by peptide-solution discs” value (E. coli (BL21); [4]) is reported as 0 mm, the “r, radius of bacteria killing formed over petri dishes by peptide-solution discs” value (E. coli (BL21); [5]) is reported as 0 mm and the “r, radius of bacteria killing formed over petri dishes by peptide-solution discs” value (E. coli (BL21); [6]) is reported as 0 mm. For the same compound, the “r, radius of bacteria killing formed over petri dishes by peptide-solution discs” value (E. coli (BL21); [7]) was 0 mm.
